Data reported in US20030175366A1, “Plant Extracts and Methods of Treating Skin Therewith” (priority 2000, published 2003).

Assays:
human fibroblasts = assay: DNA content of the fibroblasts; format: cell-based; conditions: control = 100; for DNA content after 3 days: 3 days incubation
Description: (§1) The DNA content was determined in accordance with the method described by Desaulniers in Toxic. In vitro 12(4), 409-422 (1998). The incubation time of the fibroblasts was in each case 3 days and 6 days. In each case, the average of 4 experiments with triple determination is given.

[1] = test system: glucose-6-phosphate dehydrogenase in human fibroblasts; assay: G6PDH activity in human fibroblasts (in vitro determination of the enzymatic activity); format: cell-based; conditions: control = 100; for G6PDH activity after 3 days: 3 days incubation
Description: The G6PDH activity was determined in accordance with the microprocess described by Garidelli de Quincenet in Annual Dermatol. Venereol. 107(12), 1163-1170 (1980). The G6PDH activity was determined in accordance with the process described by Natsuko Okada and Yukio Kitano in: Arch. Dermatol. Res., 271(3): 341-346, 1981 by in vitro determination of the enzymatic activity of the glucose-6-phosphate dehydrogenase in human fibroblasts.
as §1

[2] = conc. 0.00003 % by wt., 6 days incubation

## CC1=C(/C=C/C(C)=C/C=C/C(C)=C/C(=O)O)C(C)(C)CCC1 [Retinoic acid]
Human fibroblasts; conc. 0.00003 % by wt.
  DNA content after 3 days: 76 rel-%
Human fibroblasts; [2]
  DNA content after 6 days: 98 rel-%
[1]; conc. 0.00003 % by wt.
  G6PDH activity after 3 days: 134 rel-%
[1]; [2]
  G6PDH activity after 6 days: 130 rel-%

## CC1=C(/C=C/C(C)=C/C=C/C(C)=C/CO)C(C)(C)CCC1 [Retinol]
Human fibroblasts; conc. 0.005 % by wt.
  DNA content after 3 days: 95 rel-%
[1]; conc. 0.005 % by wt.
  G6PDH activity after 3 days: 400 rel-%

## COc1cc2c(cc1O)C[C@H]1c3c(cc(O)c(OC)c3-2)CCN1C [Boldin index B3916 (Sigma), Boldin]
Human fibroblasts; conc. 0.005 % by wt.
  DNA content after 3 days: 97 rel-%
[1]; conc. 0.005 % by wt.
  G6PDH activity after 3 days: 200 rel-%
